pIC50: −log10 of the molar value. Read-outs that look alike come from different tables or passages of the source.
Target: alanyl aminopeptidases (APN) (Homo sapiens, UniProt P15144)
Experiment: Inhibition of alanyl aminopeptidase enzymatic activity, fluorogenic substrate (Ala)2-rhodamine 110
Assay type: biochemical
Protocol: The inhibition characteristics measured are referred to as IC-50 values or ID50 values (the latter marked with “*”) for said enzyme. The enzymatic activity was determined by means of the fluorogenic substrate/product (Ala)2-rhodamine 110.

[1] = Table 9, unstarred values, read-out: IC50APN
[2] = Table 3, unstarred values, read-out: IC50APN
[3] = Table 4, unstarred values, read-out: IC50APN
[4] = Table 3, starred values = ID50, read-out: ID50 APN (values marked with *)
[5] = Table 1, unstarred values, read-out: IC50APN
[6] = Table 4, starred values = ID50, read-out: ID50 APN (values marked with *)

alanyl aminopeptidases (APN), sequence (P15144 whole entry, species assumed): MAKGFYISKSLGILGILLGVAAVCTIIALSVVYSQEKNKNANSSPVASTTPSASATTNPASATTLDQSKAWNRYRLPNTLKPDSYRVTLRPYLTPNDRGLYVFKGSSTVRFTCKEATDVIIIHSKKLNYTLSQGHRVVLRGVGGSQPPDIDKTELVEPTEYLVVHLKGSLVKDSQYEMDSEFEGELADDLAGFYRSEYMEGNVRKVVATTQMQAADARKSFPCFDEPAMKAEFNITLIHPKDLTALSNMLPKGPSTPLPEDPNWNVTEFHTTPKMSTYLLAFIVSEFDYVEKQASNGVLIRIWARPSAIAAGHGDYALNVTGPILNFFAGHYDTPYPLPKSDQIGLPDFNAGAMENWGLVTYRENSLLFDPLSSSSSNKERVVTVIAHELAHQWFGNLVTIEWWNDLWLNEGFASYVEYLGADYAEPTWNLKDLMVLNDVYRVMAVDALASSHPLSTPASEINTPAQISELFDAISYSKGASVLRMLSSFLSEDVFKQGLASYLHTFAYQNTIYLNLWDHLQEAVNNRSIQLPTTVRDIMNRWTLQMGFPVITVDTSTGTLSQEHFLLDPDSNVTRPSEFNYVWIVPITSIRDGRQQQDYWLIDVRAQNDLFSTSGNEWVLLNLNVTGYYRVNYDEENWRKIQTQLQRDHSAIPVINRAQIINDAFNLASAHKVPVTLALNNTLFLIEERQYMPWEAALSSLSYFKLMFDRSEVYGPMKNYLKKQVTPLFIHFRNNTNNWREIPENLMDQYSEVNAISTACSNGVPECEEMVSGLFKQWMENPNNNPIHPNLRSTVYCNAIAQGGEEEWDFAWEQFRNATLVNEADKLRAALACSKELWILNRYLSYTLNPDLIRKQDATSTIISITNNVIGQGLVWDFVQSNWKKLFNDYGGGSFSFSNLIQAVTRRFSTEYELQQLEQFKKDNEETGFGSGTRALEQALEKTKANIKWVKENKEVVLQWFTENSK

O=C(Cc1ccc([N+](=O)[O-])cc1)N1CCOCC1 [A9.044]
pIC50 [1]: 4.72

COc1ccc(C2NCCS2)cc1OC (stereo not shown) [A3.316]
pIC50 [2]: 4.04

c1coc(-c2nc3cc4ccccc4cc3nc2-c2ccco2)c1 [A9.016]
pIC50 [1]: 5.05

O=[N+](O)CC(c1ccccc1)P(=O)(c1ccccc1)c1ccccc1 (stereo not shown) [A11.011]
pIC50 (Table 11, read-out: IC50APN): 4.79

COc1ccc(/C=N/NC(=O)C2=C(C)Nc3ccccc3S2)cc1Cn1nc(C)c(Br)c1C [A4.002]
pIC50 [3]: 5.32

Cc1ccc(C(=O)N/C(=C\c2ccco2)C(=O)N2CC3CC(C2)c2cccc(=O)n2C3)cc1 (stereo not shown) [A9.023]
pIC50 [1]: 4.96

O=C1C(Cc2ccc3[nH]ccc3c2)NC(=S)N1c1ccccc1 (stereo not shown) [A3.223]
pIC50 [2]: 4.43

COc1ccc(C(=O)NCC(=O)N/N=C/c2ccco2)cc1OC [A3.288]
pIC50 [4]: 4.19

O=C(N/N=C/c1ccco1)c1cccc(NC(=O)c2ccc(F)cc2)c1 [A4.080]
pIC50 [3]: 4.59

CCCCCCCC(=O)N/N=C/c1ccco1 [A4.143]
pIC50 [3]: 4.30

O=C(N/C(=C\c1ccco1)C(=O)N1CCCC(CO)C1)c1ccccc1 (stereo not shown) [A9.043]
pIC50 [1]: 4.72

Cc1cc(Br)c(OCC(=O)N/N=C/c2c(Br)cc(Br)c(O)c2Br)c(Br)c1 [A4.126]
pIC50 [3]: 4.37

O=C(COc1ccc2ccccc2c1)N/N=C/c1ccco1 [A3.062]
pIC50 [2]: 4.86

CC(=O)C1C(c2ccc(N(C)C)cc2)C2C(=O)N(C3CCCCC3)C(=O)N2C1c1sccc1C (stereo not shown) [A3.294]
pIC50 [2]: 4.17

O=c1[nH]cc([N+](=O)[O-])cc1C(F)(F)F [A9.077]
pIC50 [1]: 4.52

CCCOC(=O)c1cc(-c2ccc(/C=C3\C(=O)NC(=O)C(C#N)=C3C)o2)ccc1Cl [A9.091]
pIC50 [1]: 4.43

CC(CCc1ccccc1)C(=O)NO (stereo not shown) [A1.013]
pIC50 [5]: 4.60

Cc1ccc(S(=O)(=O)N2CCC(C(=O)N/N=C/c3ccco3)CC2)cc1 [A6.017]
pIC50 (Table 6, read-out: IC50APN): 4.16

O=C(COc1cccc2ccccc12)N/N=C/c1ccco1 [A4.023]
pIC50 [3]: 4.89

COc1ccc(/C=C2\c3ccccc3-c3ccc(C(=O)CCCCN4CCCCC4)cc32)cc1OC [A9.111]
pIC50 [1]: 4.13

O=C(COc1ccc2ccccc2c1Br)N/N=C/c1ccco1 [A3.253]
pIC50 [2]: 4.33

COc1ccccc1C(=O)N/N=C/c1ccco1 [A3.243]
pIC50 [2]: 4.35

COc1cc(-c2cc(C(=O)N/N=C/c3ccco3)[nH]n2)ccc1OC(C)C [A4.114]
pIC50 [3]: 4.44

COc1ccc(/C(C)=N/NC(=O)CNC(=O)/C=C\c2ccco2)cc1 [A4.093]
pIC50 [3]: 4.53

CCOC(=O)c1ncn(C(=O)OC)c1N [A3.002]
pIC50 [4]: 6.05

COc1ccc(N(C(C)C(=O)N/N=C/c2ccco2)S(C)(=O)=O)cc1 (stereo not shown) [A3.251]
pIC50 [2]: 4.33

NCCCNC(=O)C1Cc2ncn(Cc3ccccc3[N+](=O)[O-])c2CN1Cc1ccccn1 (stereo not shown) [A3.326]
pIC50 [2]: 3.86

Cn1c(=O)[nH]c2nnc(-c3cccs3)nc2c1=O [A9.065]
pIC50 [1]: 4.65

Cc1cc(C)n(-c2nnc(N)nn2)n1 [A3.107]
pIC50 [2]: 4.69

Cc1ccc(/C=N/NC(=O)c2nnn(-c3nonc3N)c2C)o1 [A3.041]
pIC50 [2]: 4.96

O=C(CNS(=O)(=O)c1ccc2c(c1)OCCO2)N/N=C/c1ccco1 [A4.148]
pIC50 [3]: 4.25

Cn1nc(-c2cccs2)nc2c(=O)n(C)c(=O)nc1-2 [A3.133]
pIC50 [2]: 4.60

CC1CCN(C(=O)/C(=C\c2ccco2)NC(=O)c2ccc(Cl)cc2)CC1 [A3.022]
pIC50 [2]: 5.21

CCOC(=O)c1nc(C)[nH]c1N [A3.012]
pIC50 [2]: 5.37

CC(C)Oc1ccc(Br)cc1C(=O)N/N=C/c1ccco1 [A4.134]
pIC50 [3]: 4.33

CC1=C(C#N)C(=O)N(CC(C)O)C(=O)/C1=C/c1ccc(-c2cccc(Cl)c2C)o1 (stereo not shown) [A12.048]
pIC50 (Table 12, read-out: IC50APN): 4.54

CC(=O)c1cccc(-c2ccc(/C=C3/C(=O)N(CCCO)C(=O)C(C#N)=C3C)o2)c1 [A3.089]
pIC50 [2]: 4.74

COC(=O)CCC/C=C1/SC[C@@H](NC(=O)c2ccccc2)/C1=N/O [A3.317]
pIC50 [2]: 4.03

COc1cc(/C=N/NC(=O)/C(=C/c2cccs2)NC(=O)c2ccccc2)cc([N+](=O)[O-])c1O [A3.152]
pIC50 [2]: 4.60

COc1cccc(C(=O)NCC(=O)N/N=C/c2ccc([N+](=O)[O-])o2)c1 [A4.183]
pIC50 [6]: 3.65

CC1=C(C#N)C(=O)N(CCO)C(=O)/C1=C\c1ccc(-c2cc(Cl)ccc2Cl)o1 [A13.001]
pIC50 (Table 13, read-out: IC50APN): 5.92

CCc1cccc(CC)c1NC(=S)N/N=C1\C(=O)N(CN2CC(C)CC(C)C2)c2ccccc21 (stereo not shown) [A12.010]
pIC50 (Table 12, read-out: IC50APN): 5.17

CCCOC(=O)c1cc(-c2ccc(/C=C3\C(=O)NC(=O)C(C#N)=C3C)o2)ccc1Cl [A13.016]
pIC50 (Table 13, read-out: IC50APN): 4.43

COc1cccc(C(=O)NCC(=O)N/N=C/c2ccc([N+](=O)[O-])o2)c1 [A11.035]
pIC50 (Table 11, read-out: IC50APN): 3.65

COc1ccc(OCC(=O)N/N=C/c2c(Br)cc(Br)c(O)c2Br)cc1 [A4.164]
pIC50 [6]: 4.12

O=C(N/N=C/c1ccco1)c1cc(C2CC2)n[nH]1 [A3.064]
pIC50 [2]: 4.84

O=C(O)c1cc2nc(-c3ccco3)cc(C(F)(F)Cl)n2n1 [A9.028]
pIC50 [1]: 4.88

O=C(N/N=C\C=C\c1ccco1)c1cc(-c2cccs2)n[nH]1 [A4.175]
pIC50 [6]: 3.88

COc1cc(Br)ccc1OCC(=O)N/N=C/c1cc(Br)c(O)c(O)c1Br [A3.109]
pIC50 [2]: 4.69

O=C(CNS(=O)(=O)c1ccc2c(c1)OCCO2)N/N=C/c1ccco1 [A6.016]
pIC50 (Table 6, read-out: IC50APN): 4.25

O=C(N/C(=C\c1ccco1)C(=O)N1CCCC(CO)C1)c1ccccc1 (stereo not shown) [A3.094]
pIC50 [2]: 4.72

O=C(N/N=C/C=C\c1ccco1)c1cccs1 [A4.151]
pIC50 [3]: 4.20

COC(=O)c1ccc(-c2ccc(/C=C3\C(=O)N(CCCO)C(=O)C(C#N)=C3C)o2)cc1 [A13.003]
pIC50 (Table 13, read-out: IC50APN): 5.30

CCOC(=O)c1ncn(C)c1N [A3.262]
pIC50 [2]: 4.30

Cc1ccc(NC(=O)/C(=C\c2ccco2)NC(=O)c2ccc(C)cc2)cc1 [A3.077]
pIC50 [2]: 4.79

CCCOc1ccccc1-c1cc(C(=O)N/N=C/c2ccco2)[nH]n1 [A3.100]
pIC50 [2]: 4.71

CN(C)CCCN1CCN(c2nc(N(C)CC(=O)O)c3ncn(Cc4ccc([N+](=O)[O-])cc4)c3n2)CC1 [A12.023]
pIC50 (Table 12, read-out: IC50APN): 4.93

CC1=C(C#N)C(=O)N(CCCO)C(=O)/C1=C\c1ccc(-c2ccc(Br)cc2)o1 [A12.030]
pIC50 (Table 12, read-out: IC50APN): 4.80

CN(C)CCCN1CCN(c2nc(N(C)CC(=O)O)c3ncn(Cc4ccc([N+](=O)[O-])cc4)c3n2)CC1 [A11.008]
pIC50 (Table 11, read-out: IC50APN): 4.93

O=C(Nc1ccc(O)cc1C(=O)O)c1cccc(N2C(=O)c3cccc4c([N+](=O)[O-])ccc(c34)C2=O)c1 [A11.017]
pIC50 (Table 11, read-out: IC50APN): 4.63

CCCCCCCSc1nnc2c(n1)CC(C(=O)c1ccccc1)=Nc1ccccc1-2 [A11.019]
pIC50 (Table 11, read-out: IC50APN): 4.54

O=C(N/C=C1/C(=O)Nc2ccc(F)cc21)/C(=C/c1ccccc1)NC(=O)c1ccccc1 [A4.130]
pIC50 [3]: 4.35

COC(=O)c1cc(-c2ccc(/C=C3\C(=O)N(CCCO)C(=O)C(C#N)=C3C)o2)ccc1Cl [A13.006]
pIC50 (Table 13, read-out: IC50APN): 4.82

CC1=C(C#N)C(=O)N(CC(C)O)C(=O)/C1=C/c1ccc(-c2cccc(Cl)c2C)o1 (stereo not shown) [A3.175]
pIC50 [2]: 4.54

O=C(ON1C(=O)CCC1=O)C1CCC(=O)N1C(=O)OCc1ccccc1 (stereo not shown) [A1.007]
pIC50 [5]: 5.08

Cc1cc(=O)[nH]c(N/N=C/c2ccco2)n1 [A9.041]
pIC50 [1]: 4.74

O=C(COc1ccc(Br)cc1)NO [A1.004]
pIC50 [5]: 5.19

COc1ccccc1-n1c(CCC(=O)O)ccc1-c1cccs1 [A3.177]
pIC50 [2]: 4.54

O=C(COc1ccc(F)cc1)N/N=C/c1ccco1 [A4.026]
pIC50 [3]: 4.87

Cc1ccc(/C=C/C(=O)Nc2ccc(S(=O)(=O)N3CCCC3)cc2)o1 [A6.013]
pIC50 (Table 6, read-out: IC50APN): 4.61
